According to ChEMBL document CHEMBL3259619, “Antibacterial activity of a series of N2,N4-disubstituted quinazoline-2,4-diamines” (J Med Chem, 2014):
In brackets after ≈: the same amount, converted by molar mass. Activity calls are given as the source filed them. Unless noted, the rule behind the calls is not given here.

Experiments:
[1] = tested on: Staphylococcus aureus; test: Antimicrobial activity against wild type Staphylococcus aureus; assay type: functional
[2] = tested on: Staphylococcus aureus; test: Bactericidal activity against methicillin-resistant Staphylococcus aureus CBD-635 assessed as bacterial killing; assay type: functional
[3] = tested on: Staphylococcus aureus; test: Antimicrobial activity against methicillin-resistant Staphylococcus aureus CBD-635 assessed as complete inhibition of bacterial growth after overnight incubation; assay type: functional
[4] = tested on: Staphylococcus aureus; test: Antimicrobial activity against wild type Staphylococcus aureus in presence of sulfamethoxazole; assay type: functional
[5] = tested on: Staphylococcus aureus; test: Antimicrobial activity against Staphylococcus aureus infected Galleria mellonella assessed as increase in larvae survival at 5 times MIC; assay type: functional
[6] = tested on: Staphylococcus aureus; test: Antimicrobial activity against methicillin-resistant Staphylococcus aureus CBD-635 assessed as complete inhibition of bacterial growth at 5 times MIC after overnight incubation in presence of tetrahydrofolic acid; assay type: functional, organism-based
[7] = tested on: Staphylococcus aureus; test: Antimicrobial activity against quinazoline-resistant Staphylococcus aureus assessed as complete inhibition of bacterial growth after 24 hrs; assay type: functional, organism-based
[8] = tested on: Staphylococcus aureus; test: Antimicrobial activity against trimethoprim-resistant Staphylococcus aureus assessed as complete inhibition of bacterial growth after 24 hrs; assay type: functional, organism-based
[9] = tested on: Staphylococcus aureus; test: Antimicrobial activity against Staphylococcus aureus infected Galleria mellonella assessed as increase in larvae survival at 10 times MIC; assay type: functional
[10] = tested on: Staphylococcus aureus; test: Antimicrobial activity against N2,N4-dibenzylquinazoline-2,4-diamine-induced methicillin-resistant Staphylococcus aureus CBD-635 mutant M2 assessed as complete inhibition of bacterial growth after overnight incubation; assay type: functional
[11] = tested on: Staphylococcus aureus; test: Antimicrobial activity against N2,N4-dibenzylquinazoline-2,4-diamine-induced methicillin-resistant Staphylococcus aureus CBD-635 mutant M1 assessed as complete inhibition of bacterial growth after overnight incubation; assay type: functional
[12] = tested on: Staphylococcus aureus; test: Antimicrobial activity against methicillin-resistant Staphylococcus aureus CBD-635 assessed as zone of inhibition at 5 mg/ml after 24 hrs by disk diffusion assay; assay type: functional; settings: CBD-635, 24 h, read-out: IZ
[13] = Cytotoxicity against human A549 cells assessed as cell viability recovery at 36.7 to 459 uM by MTT assay relative to untreated control; assay type: cell-based; settings: read-out: Activity
[14] = Cytotoxicity against human A549 cells assessed as cell viability recovery at up to 9.2 uM by MTT assay relative to untreated control; assay type: cell-based; settings: read-out: Activity
[15] = Cytotoxicity against human A549 cells assessed as cell viability recovery up to 459 uM by MTT assay relative to untreated control; assay type: cell-based; settings: read-out: Activity
[16] = tested on: Staphylococcus aureus; test: Antibacterial activity against Staphylococcus aureus infected in mouse assessed as protection of mouse; assay type: functional
[17] = tested on: Staphylococcus aureus; test: Antibacterial activity against trimethoprim-resistant Staphylococcus aureus; assay type: functional
[18] = physchem; settings: pampa, pH 4
[19] = physchem; settings: pampa, pH 7.4
[20] = tested on: Klebsiella pneumoniae; test: Antimicrobial activity against Klebsiella pneumoniae infected in mouse assessed as survival rate at 100 mg/kg; assay type: functional
[21] = tested on: Escherichia coli; test: Antimicrobial activity against Escherichia coli; assay type: functional
[22] = tested on: Klebsiella pneumoniae; test: Antimicrobial activity against Klebsiella pneumoniae; assay type: functional
[23] = tested on: Staphylococcus aureus; test: Antimicrobial activity against Staphylococcus aureus; assay type: functional, organism-based
[24] = tested on: Staphylococcus aureus; test: Antimicrobial activity against N2,N4-dibenzylquinazoline-2,4-diamine-induced methicillin-resistant Staphylococcus aureus CBD-635 mutant assessed as complete inhibition of bacterial growth after overnight incubation; assay type: functional
[25] = Aqueous solubility of the compound at pH 7.4 after 18 hrs incubation by HPLC; assay type: physicochemical
[26] = tested on: Staphylococcus aureus; test: Antimicrobial activity against methicillin-resistant Staphylococcus aureus infected in mouse assessed as complete protection to mouse at MIC via tail vein relative to untreated control; assay type: functional, organism-based
[27] = tested on: Staphylococcus aureus; test: Antimicrobial activity against N2,N4-dibenzylquinazoline-2,4-diamine-induced methicillin-resistant Staphylococcus aureus CBD-635 mutant M4 assessed as complete inhibition of bacterial growth after overnight incubation; assay type: functional
[28] = tested on: Staphylococcus aureus; test: Antimicrobial activity against Staphylococcus aureus infected in mouse assessed as increase in mouse survival at 10 times MIC via tail vein relative to untreated control; assay type: functional, organism-based
[29] = pampa, pH 4
[30] = tested on: Staphylococcus aureus; test: Antimicrobial activity against N2,N4-dibenzylquinazoline-2,4-diamine-induced methicillin-resistant Staphylococcus aureus CBD-635 mutant M3 assessed as complete inhibition of bacterial growth after overnight incubation; assay type: functional
[31] = Cytotoxicity against human A549 cells assessed as cell viability recovery at 1.5 uM by MTT assay relative to untreated control; assay type: cell-based; settings: read-out: Activity
[32] = Cytotoxicity against human A549 cells assessed as cell viability recovery up to 367 uM by MTT assay relative to untreated control; assay type: cell-based; settings: read-out: Activity
[33] = Lipophilicity, log D of the compound at pH 7.4; assay type: physicochemical; settings: buffer
[34] = tested on: Staphylococcus aureus; test: Antimicrobial activity against N2,N4-dibenzylquinazoline-2,4-diamine-induced methicillin-resistant Staphylococcus aureus CBD-635 mutant M6 assessed as complete inhibition of bacterial growth after overnight incubation; assay type: functional
[35] = Cytotoxicity against human A549 cells assessed as cell viability recovery at 370 uM by MTT assay relative to untreated control; assay type: cell-based; settings: read-out: Activity
[36] = pampa, pH 7.4
[37] = tested on: Staphylococcus aureus; test: Antimicrobial activity against Staphylococcus aureus infected in mouse assessed as increase in mouse survival at 5 times MIC via tail vein relative to untreated control; assay type: functional
[38] = tested on: Staphylococcus aureus; test: Antimicrobial activity against N2,N4-dibenzylquinazoline-2,4-diamine-induced methicillin-resistant Staphylococcus aureus CBD-635 mutant M7 assessed as complete inhibition of bacterial growth after overnight incubation; assay type: functional
[39] = tested on: Staphylococcus aureus; test: Antimicrobial activity against N2,N4-dibenzylquinazoline-2,4-diamine-induced methicillin-resistant Staphylococcus aureus CBD-635 mutant M5 assessed as complete inhibition of bacterial growth after overnight incubation; assay type: functional
[40] = Lipophilicity, log D of the compound at pH 3; assay type: physicochemical; settings: buffer
[41] = Aqueous solubility of the compound at pH 2 after 18 hrs incubation by HPLC; assay type: physicochemical
[42] = tested on: Bacillus subtilis; test: Antimicrobial activity against Bacillus subtilis; assay type: functional, organism-based

Cc1cc(NS(=O)(=O)c2ccc(N)cc2)no1 [SULFAMETHOXAZOLE]
MIC [1]: 2400 µM (≈ 608 µg/mL)

Clc1ccc(CNc2nc(NCc3ccc(Cl)cc3)c3ccccc3n2)cc1
MBC50 [2]: 7.2 µM (≈ 2.95 µg/mL)
MIC [3]: 2.4 µM (≈ 0.982 µg/mL)
fractional inhibitory concentration index (FICI) [4]: 0.12
Survival [5]: 50%
inhibition [6]: inactive
inhibition [7]: Active
inhibition [8]: Active
Survival [9]: 60%
MIC [10]: 2.4 µM (≈ 0.982 µg/mL)
MIC [11]: 2.4 µM (≈ 0.982 µg/mL)

CCCCNc1nc(NCCCC)c2ccccc2n1
zone of inhibition at 5000 µg/mL [12]: 12 mm
MBC50 [2]: 0.036 µM (≈ 0.00981 µg/mL)
MIC [3]: 0.37 µM (≈ 0.101 µg/mL)
viability at up to 459 µM [13]: 58.8%
viability [14]: 100%
viability [15]: > 50%
inhibition [6]: inactive

Cc1cc2nc(-c3nccs3)n(-c3ccc4c(N)nc(N)nc4c3)c2cc1C
PD50 [16]: 2 mg/kg
MIC [17]: 0.25 µg/mL (≈ 0.645 µM)

CNC(=C[N+](=O)[O-])NCCSCc1ccc(CN(C)C)o1.Cl [RANITIDINE HYDROCHLORIDE]
Papp [18]: 5.2 ×10⁻⁶ cm/s
Papp [19]: 2.2 ×10⁻⁶ cm/s

COc1cc2nc(N3CCC(Nc4ccc(C(=O)O)cc4)CC3)nc(N)c2cc1OC
survival at 100 mg/kg [20]: 40%
MIC [21]: 2 µM (≈ 0.847 µg/mL)
MIC [22]: 12 µM (≈ 5.08 µg/mL)
MIC [23]: 12 µM

c1ccc(CNc2nc(NCc3ccccc3)c3ccccc3n2)cc1
MIC [24]: > 590 µM
zone of inhibition at 5000 µg/mL [12]: 13 mm
solubility at 18 h [25]: ≤ 10 µM
MBC50 [2]: inactive
Activity [26]: Active
MIC [27]: > 590 µM
Activity [28]: Active
permeability [29]: 312 ×10⁻⁶ cm/s
MIC [3]: 2.9 µM (≈ 0.987 µg/mL)
MIC [30]: > 590 µM
viability at 1.5 µM [31]: 93.2%
viability [32]: > 60%
fractional inhibitory concentration index (FICI) [4]: 0.12
logD [33]: 3.82
MIC [34]: > 590 µM
viability at 370 µM [35]: 83.6%
Survival [5]: 50%
permeability [36]: 383 ×10⁻⁶ cm/s
Survival [37]: 69%
inhibition [6]: inactive
inhibition [7]: Active
inhibition [8]: Active
MIC [38]: > 590 µM
MIC [39]: > 590 µM
MIC [10]: > 590 µM
logD [40]: 2.82
solubility at 18 h [41]: ≥ 30 µM
MIC [11]: > 590 µM

Cc1ccc(Nc2nc(-c3ccccc3)nc3ccccc23)cc1
EC50 [42]: 0.7 µg/mL (≈ 2.25 µM)
MIC [42]: 1 µg/mL (≈ 3.21 µM)
EC50 [23]: 0.8 µg/mL (≈ 2.57 µM)
MIC [23]: 10 µg/mL
